Experimental data reported in the NIST ThermoML archive (doi:10.1021/je500804j).

Experiment: mn = molality of the nth substance listed, in mol/kg
Settings: 101 kPa, Liquid, Alternating current cell with electrodes

CCCCCCCC[N+](C)(C)CCCCCC[N+](C)(C)CCCCCCCC.[Br-].[Br-] + O
Settings | electrical conductivity [S/m]
303.15 K, m1 = 0.1147 | 1.235
303.15 K, m1 = 0.1161 | 1.242
308.15 K, m1 = 0.00368 | 0.09215
308.15 K, m1 = 0.00726 | 0.1725
308.15 K, m1 = 0.01076 | 0.2453
308.15 K, m1 = 0.01417 | 0.3115
308.15 K, m1 = 0.0175 | 0.3725
308.15 K, m1 = 0.02076 | 0.4289
308.15 K, m1 = 0.02394 | 0.4827
308.15 K, m1 = 0.02704 | 0.5324
308.15 K, m1 = 0.03008 | 0.5804
308.15 K, m1 = 0.03304 | 0.6259
308.15 K, m1 = 0.03595 | 0.6694
308.15 K, m1 = 0.03878 | 0.7099
308.15 K, m1 = 0.04156 | 0.7496
308.15 K, m1 = 0.04428 | 0.7852
308.15 K, m1 = 0.04693 | 0.8231
308.15 K, m1 = 0.05209 | 0.8882
308.15 K, m1 = 0.05458 | 0.9163
308.15 K, m1 = 0.05703 | 0.9472
308.15 K, m1 = 0.05942 | 0.9728
308.15 K, m1 = 0.06177 | 1.001
308.15 K, m1 = 0.06407 | 1.027
308.15 K, m1 = 0.06633 | 1.05
308.15 K, m1 = 0.06854 | 1.072
308.15 K, m1 = 0.07072 | 1.092
308.15 K, m1 = 0.07284 | 1.111
308.15 K, m1 = 0.07493 | 1.128
308.15 K, m1 = 0.07698 | 1.149
308.15 K, m1 = 0.079 | 1.164
308.15 K, m1 = 0.08097 | 1.182
308.15 K, m1 = 0.08291 | 1.195
308.15 K, m1 = 0.08482 | 1.211
308.15 K, m1 = 0.08669 | 1.225
308.15 K, m1 = 0.08852 | 1.238
308.15 K, m1 = 0.09033 | 1.251
308.15 K, m1 = 0.0921 | 1.264
308.15 K, m1 = 0.09385 | 1.276
308.15 K, m1 = 0.09556 | 1.286
308.15 K, m1 = 0.09725 | 1.298
308.15 K, m1 = 0.0989 | 1.308
308.15 K, m1 = 0.1005 | 1.319
308.15 K, m1 = 0.1021 | 1.326
308.15 K, m1 = 0.1037 | 1.337
308.15 K, m1 = 0.1053 | 1.346
308.15 K, m1 = 0.1068 | 1.354
308.15 K, m1 = 0.1083 | 1.363
308.15 K, m1 = 0.1098 | 1.37
308.15 K, m1 = 0.1112 | 1.38
308.15 K, m1 = 0.1127 | 1.385
308.15 K, m1 = 0.1141 | 1.392
313.15 K, m1 = 0.00383 | 0.1036
313.15 K, m1 = 0.00755 | 0.1854
313.15 K, m1 = 0.01119 | 0.2548
313.15 K, m1 = 0.01473 | 0.3279
313.15 K, m1 = 0.01819 | 0.3993
313.15 K, m1 = 0.02156 | 0.4651
313.15 K, m1 = 0.02485 | 0.5281
313.15 K, m1 = 0.02806 | 0.5866
313.15 K, m1 = 0.0312 | 0.6397
313.15 K, m1 = 0.03426 | 0.6934
313.15 K, m1 = 0.03725 | 0.7428
313.15 K, m1 = 0.04018 | 0.7886
313.15 K, m1 = 0.04304 | 0.8328
313.15 K, m1 = 0.04583 | 0.8749
313.15 K, m1 = 0.04857 | 0.9139
313.15 K, m1 = 0.05386 | 0.9883
313.15 K, m1 = 0.05642 | 1.024
313.15 K, m1 = 0.05893 | 1.055
313.15 K, m1 = 0.06138 | 1.086
313.15 K, m1 = 0.06379 | 1.114
313.15 K, m1 = 0.06615 | 1.139
313.15 K, m1 = 0.06845 | 1.165
313.15 K, m1 = 0.07072 | 1.19
313.15 K, m1 = 0.07293 | 1.212
313.15 K, m1 = 0.07511 | 1.236
313.15 K, m1 = 0.07724 | 1.257
313.15 K, m1 = 0.07933 | 1.276
313.15 K, m1 = 0.08138 | 1.296
313.15 K, m1 = 0.08339 | 1.314
313.15 K, m1 = 0.08537 | 1.332
313.15 K, m1 = 0.0873 | 1.348
313.15 K, m1 = 0.08921 | 1.364
313.15 K, m1 = 0.09107 | 1.378
313.15 K, m1 = 0.09291 | 1.392
313.15 K, m1 = 0.09471 | 1.406
313.15 K, m1 = 0.09648 | 1.418
313.15 K, m1 = 0.09822 | 1.432
313.15 K, m1 = 0.09993 | 1.444
313.15 K, m1 = 0.1016 | 1.457
313.15 K, m1 = 0.1032 | 1.467
313.15 K, m1 = 0.1049 | 1.476
313.15 K, m1 = 0.1065 | 1.487
313.15 K, m1 = 0.108 | 1.493
313.15 K, m1 = 0.1096 | 1.505
313.15 K, m1 = 0.1111 | 1.516
313.15 K, m1 = 0.1126 | 1.527
313.15 K, m1 = 0.1141 | 1.537
313.15 K, m1 = 0.1155 | 1.545
313.15 K, m1 = 0.1169 | 1.553
318.15 K, m1 = 0.00396 | 0.09519
318.15 K, m1 = 0.00782 | 0.2003
318.15 K, m1 = 0.01158 | 0.2945
318.15 K, m1 = 0.01525 | 0.381
318.15 K, m1 = 0.01883 | 0.4611
318.15 K, m1 = 0.02233 | 0.5339
318.15 K, m1 = 0.02574 | 0.6047
318.15 K, m1 = 0.02907 | 0.6691
318.15 K, m1 = 0.03233 | 0.7314
318.15 K, m1 = 0.03551 | 0.7874
318.15 K, m1 = 0.03862 | 0.8418
318.15 K, m1 = 0.04166 | 0.8941
318.15 K, m1 = 0.04463 | 0.9453
318.15 K, m1 = 0.04754 | 0.9898
318.15 K, m1 = 0.05038 | 1.036
318.15 K, m1 = 0.05589 | 1.12
318.15 K, m1 = 0.05856 | 1.154
318.15 K, m1 = 0.06117 | 1.192
318.15 K, m1 = 0.06373 | 1.221
318.15 K, m1 = 0.06624 | 1.254
318.15 K, m1 = 0.06869 | 1.281
318.15 K, m1 = 0.0711 | 1.313
318.15 K, m1 = 0.07346 | 1.338
318.15 K, m1 = 0.07577 | 1.367
318.15 K, m1 = 0.07804 | 1.392
318.15 K, m1 = 0.08027 | 1.412
318.15 K, m1 = 0.08245 | 1.437
318.15 K, m1 = 0.08459 | 1.458
318.15 K, m1 = 0.0867 | 1.474
318.15 K, m1 = 0.08876 | 1.498
318.15 K, m1 = 0.09078 | 1.51
318.15 K, m1 = 0.09277 | 1.532
318.15 K, m1 = 0.09473 | 1.547
318.15 K, m1 = 0.09665 | 1.567
318.15 K, m1 = 0.09853 | 1.582
318.15 K, m1 = 0.1004 | 1.591
318.15 K, m1 = 0.1022 | 1.609
318.15 K, m1 = 0.104 | 1.626
318.15 K, m1 = 0.1057 | 1.636
318.15 K, m1 = 0.1075 | 1.647
318.15 K, m1 = 0.1092 | 1.659
318.15 K, m1 = 0.1109 | 1.674
318.15 K, m1 = 0.1125 | 1.687
318.15 K, m1 = 0.1141 | 1.699
318.15 K, m1 = 0.1157 | 1.713
318.15 K, m1 = 0.1173 | 1.724
318.15 K, m1 = 0.1188 | 1.732
318.15 K, m1 = 0.1203 | 1.749
318.15 K, m1 = 0.1218 | 1.761
323.15 K, m1 = 0.00396 | 0.123
323.15 K, m1 = 0.00782 | 0.2241
323.15 K, m1 = 0.01158 | 0.3183
323.15 K, m1 = 0.01526 | 0.4132
323.15 K, m1 = 0.01884 | 0.5013
323.15 K, m1 = 0.02233 | 0.5818
323.15 K, m1 = 0.02575 | 0.6582
323.15 K, m1 = 0.02908 | 0.7289
323.15 K, m1 = 0.03234 | 0.7956
323.15 K, m1 = 0.03552 | 0.8617
323.15 K, m1 = 0.03863 | 0.9197
323.15 K, m1 = 0.04167 | 0.9784
323.15 K, m1 = 0.04464 | 1.033
323.15 K, m1 = 0.04755 | 1.084
323.15 K, m1 = 0.0504 | 1.133
323.15 K, m1 = 0.05591 | 1.222
323.15 K, m1 = 0.05858 | 1.262
323.15 K, m1 = 0.06119 | 1.299
323.15 K, m1 = 0.06375 | 1.336
323.15 K, m1 = 0.06625 | 1.367
323.15 K, m1 = 0.06871 | 1.396
323.15 K, m1 = 0.07112 | 1.427
323.15 K, m1 = 0.07348 | 1.453
323.15 K, m1 = 0.07579 | 1.485
323.15 K, m1 = 0.07806 | 1.514
323.15 K, m1 = 0.08029 | 1.542
323.15 K, m1 = 0.08247 | 1.564
323.15 K, m1 = 0.08461 | 1.59
323.15 K, m1 = 0.08672 | 1.613
323.15 K, m1 = 0.08878 | 1.634
323.15 K, m1 = 0.09081 | 1.651
323.15 K, m1 = 0.0928 | 1.671
323.15 K, m1 = 0.09475 | 1.694
323.15 K, m1 = 0.09667 | 1.71
323.15 K, m1 = 0.09855 | 1.728
323.15 K, m1 = 0.1004 | 1.745
323.15 K, m1 = 0.1022 | 1.761
323.15 K, m1 = 0.104 | 1.776
323.15 K, m1 = 0.1058 | 1.788
323.15 K, m1 = 0.1075 | 1.804
323.15 K, m1 = 0.1092 | 1.816
323.15 K, m1 = 0.1109 | 1.832
323.15 K, m1 = 0.1125 | 1.841
323.15 K, m1 = 0.1141 | 1.854
323.15 K, m1 = 0.1157 | 1.866
323.15 K, m1 = 0.1173 | 1.881
323.15 K, m1 = 0.1188 | 1.893
323.15 K, m1 = 0.1203 | 1.901
323.15 K, m1 = 0.1218 | 1.917
